Assay results taken from the NIST ThermoML archive (doi:10.1016/j.jct.2018.12.009).

Details: for vapor or sublimation pressure: Liquid, Closed cell (Static) method; for mass density: Fluid (supercritical or subcritical phases), isochoric method

CC(C)O [propan-2-ol]
Details	vapor or sublimation pressure [kPa]
301.24 K	7
314.26 K	15
314.29 K	15
314.52 K	15
314.8 K	16
315.05 K	16
315.3 K	16
315.42 K	16
315.61 K	16
315.8 K	17
341.91 K	57
342.03 K	57
342.08 K	57
342.2 K	57
342.32 K	58
342.49 K	58
342.67 K	58
342.79 K	59
342.91 K	59
343.03 K	59
369.05 K	169
369.13 K	169
369.16 K	169
369.28 K	170
369.39 K	171
369.5 K	171
369.67 K	172
369.84 K	173
369.96 K	174
370.07 K	175
391.32 K	358
391.5 K	360
391.53 K	360
391.54 K	360
391.65 K	362
391.76 K	363
391.87 K	364
391.98 K	366
392.09 K	367
392.2 K	368
416.55 K	732
416.65 K	734
416.73 K	736
416.76 K	736
416.86 K	739
416.97 K	741
417.08 K	743
417.18 K	745
417.29 K	747
417.4 K	749
417.5 K	756
442.12 K	1367
442.14 K	1368
442.23 K	1371
442.33 K	1374
442.43 K	1377
442.54 K	1381
442.64 K	1383
442.74 K	1386
442.85 K	1389
463.48 K	2136
463.56 K	2140
463.58 K	2141
463.78 K	2149
463.83 K	2152
463.97 K	2158
464.18 K	2166
464.27 K	2171
464.42 K	2177
464.97 K	2201
465.27 K	2213
465.34 K	2217
468.1 K	2330
482.51 K	3081
482.6 K	3085
482.7 K	3089
482.72 K	3090
482.8 K	3093
482.89 K	3098
482.99 K	3102
483.09 K	3106
483.18 K	3110
500.85 K	4213
500.95 K	4219
501.04 K	4224
501.08 K	4226
501.14 K	4229
501.23 K	4235
501.33 K	4240
501.42 K	4245
501.53 K	4251
501.62 K	4256
501.81 K	4267
501.9 K	4272
503.92 K	4428
504.02 K	4438
504.03 K	4436
504.11 K	4366
504.31 K	4456
504.5 K	4470
504.59 K	4477
504.98 K	4504
505.06 K	4521
505.08 K	4522
505.27 K	4536
505.37 K	4544
506.43 K	4667
506.53 K	4675
506.61 K	4648
506.62 K	4682
506.72 K	4690
506.82 K	4697
506.96 K	4708
506.97 K	4709
507.11 K	4720
507.2 K	4727
507.3 K	4735
507.4 K	4743
507.5 K	4750
507.59 K	4757
507.69 K	4765
507.79 K	4773
507.89 K	4781
508.04 K	4793
508.16 K	4803

Details	mass density [kg/m3]
508.16 K, 4803 kPa	329.2
508.18 K, 4804 kPa	329.2
508.28 K, 4813 kPa	329.2
508.37 K, 4822 kPa	329.2
508.47 K, 4831 kPa	329.2
508.57 K, 4840 kPa	329.2
508.67 K, 4849 kPa	329.2
508.76 K, 4858 kPa	329.2
509.35 K, 4911 kPa	329.2
509.45 K, 4920 kPa	329.2
509.5 K, 5095 kPa	329.2
509.55 K, 4929 kPa	329.2
509.64 K, 4938 kPa	329.2
509.79 K, 4951 kPa	329.2
509.99 K, 4967 kPa	329.2
510.14 K, 4981 kPa	329.2
510.23 K, 4990 kPa	329.2
510.33 K, 4999 kPa	329.2
510.48 K, 5012 kPa	329.2
510.93 K, 5271 kPa	329.2
516.9 K, 5603 kPa	329.2
516.99 K, 5611 kPa	329.2
517.08 K, 5619 kPa	329.2
517.27 K, 5637 kPa	329.2
521.87 K, 6056 kPa	329.2
521.96 K, 6064 kPa	329.2
522.14 K, 6080 kPa	329.2
522.33 K, 6397 kPa	329.2
522.42 K, 6405 kPa	329.2
522.51 K, 6414 kPa	329.2
522.6 K, 6495 kPa	329.2
